Consider nine compounds from PMC6017707, “Structure Related Inhibition of Enzyme Systems in Cholinesterases and BACE1 In Vitro by Naturally Occurring Naphthopyrone and Its Glycosides Isolated from Cassia obtusifolia” (Molecules : A Journal of Synthetic Chemistry and Natural …, 2017).

Values joined by “and” are separate entries in the source; they are usually repeats but may differ in a detail not shown here. Equal values may be shown once. “Also recorded” adds a separate entry of the source. Read-outs that look alike come from different tables or passages of the source.

In assay [1] the target is T1, Electric eel acetylcholinesterase (Electrophorus electricus, UniProt O42275).
T1 construct: purchased Sigma Co. (St. Louis, MO, USA)
Description: In vitro AChE inhibition assay (Ellman spectrophotometric method). It is filed as biochemical. The procedure: (§1) The inhibitory activities of isolated compounds against ChEs were measured using the spectrophotometric method, as described previously. Briefly, AChI and BCh were used as the substrates to assay the inhibition of AChE and BChE, respectively. Each reaction mixture contained 140 µL of sodium phosphate buffer (pH 8.0); 20 µL of compounds (final conc., 100 µM); and, 20 µL of either AChE or BChE solution, which was mixed and incubated for 15 min at room temperature. […] Reactions were initiated by the addition of 10 µL of DTNB and 10 µL of either AChI or BCh. […] All of the reactions were performed in triplicate and recorded in 96-well microplate format using a microplate spectrophotometer (Molecular Devices, Sunnyvale, CA, USA). Percent inhibition was calculated as (1-S/E) × 100, where E and S were the respective enzyme activities without and with the tested sample, respectively.
Background: DTNB colorimetry detects thiols as they appear.

For assay [2], the target named is T2, horse serum butyrylcholinesterase (Equus caballus, UniProt P81908).
T2 construct: horse-serum BChE (EC 3.1.1.8); purchased Sigma Co. (St. Louis, MO, USA); host or cells: horse serum
Description: In vitro BChE inhibition assay (Ellman spectrophotometric method). It counts as biochemical. The procedure:
as §1

Assay [3] addresses T3, human recombinant BACE1 (Homo sapiens, UniProt P56817).
T3 construct: purchased Pan Vera Co. (Madison, WI, USA)
Description: In vitro BACE1 FRET enzyme assay. It counts as biochemical. Particulars: for IC50: log dose inhibition curve; for BACE1 inhibitory activity (in words): at concentrations up to 200 µM. The procedure: Assays were performed according to the supplied manual (Pan Vera Co.) with selected modifications, as described previously. […] Fluorescence was measured with a microplate spectrophotometer (Molecular Devices). The percent of inhibition (%) was obtained by the following equation: % Inhibition = [1 − (S60 − S0)/(C60 − C0)] × 100, where C60 was the fluorescence of the control (enzyme, buffer, and substrate) after incubation for 60 min, C0 was the initial fluorescence of the control, S60 was the fluorescence of the tested samples (enzyme, sample solution, and substrate) after incubation for 60 min, and S0 was the initial fluorescence of the tested samples. To account for the quenching effect of samples, the sample solution was added to a separate reaction mixture C, and any reduction in fluorescence by the sample was investigated.

The target in assay [4] is T1, Electric eel acetylcholinesterase. In words: Enzyme kinetic analysis with AChE (Dixon and Lineweaver-Burk plots). It counts as biochemical.
Description: Inhibition constants (Ki) were determined by the interpretation of Dixon plots, where the x-axis intercept was taken as Ki.
Details of assay [5]: method as in PMID 10319159. The following applies: cited from earlier work.
Assay [6] addresses T3, human recombinant BACE1. Description: Enzyme kinetic analysis with BACE1 (Dixon and Lineweaver-Burk plots). It is filed as biochemical. The procedure: Assays were performed according to the supplied manual (Pan Vera Co.) with selected modifications, as described previously. Briefly, mixtures of 10 µL of assay buffer (50 mM sodium acetate, pH 4.5), 10 µL of BACE1 (1.0 U/mL), 10 µL of the substrate (750 nM Rh-[…]-Quencher in 50 mM, ammonium bicarbonate), and 10 µL of compounds (final conc., 100 µM) dissolved in 10% DMSO were incubated for 60 min at 25 °C in the dark. The proteolysis of two fluorophores (Rh-[…]-Quencher) by BACE1 was monitored by the formation of fluorescent donor Rh-EVNL (530–545 nm, excitation; 570–590 nm, emission), the abundance of which was determined by measuring increase in fluorescence excited at 545 nm and recorded at 585 nm. Fluorescence was measured with a microplate spectrophotometer (Molecular Devices). The percent of inhibition (%) was obtained by the following equation: % Inhibition = [1 − (S60 − S0)/(C60 − C0)] × 100, where C60 was the fluorescence of the control (enzyme, buffer, and substrate) after incubation for 60 min, C0 was the initial fluorescence of the control, S60 was the fluorescence of the tested samples (enzyme, sample solution, and substrate) after incubation for 60 min, and S0 was the initial fluorescence of the tested samples. […]

The target of assay [7] is T3, human recombinant BACE1. The following applies: cited from earlier work; for BACE1 inhibitory activity (in words): compounds isolated from n-BuOH fraction in earlier study.
Where [8] appears, read: mean ± S.E.M of triplicate experiments, log dose inhibition curve, read-out: AChE IC50.
Where [9] appears, read: mean ± S.E.M of triplicate experiments, log dose inhibition curve, read-out: BChE IC50.
Setting [10] is: mean ± S.E.M of triplicate experiments, read-out: BACE1 IC50.

T2 sequence (P81908 whole entry): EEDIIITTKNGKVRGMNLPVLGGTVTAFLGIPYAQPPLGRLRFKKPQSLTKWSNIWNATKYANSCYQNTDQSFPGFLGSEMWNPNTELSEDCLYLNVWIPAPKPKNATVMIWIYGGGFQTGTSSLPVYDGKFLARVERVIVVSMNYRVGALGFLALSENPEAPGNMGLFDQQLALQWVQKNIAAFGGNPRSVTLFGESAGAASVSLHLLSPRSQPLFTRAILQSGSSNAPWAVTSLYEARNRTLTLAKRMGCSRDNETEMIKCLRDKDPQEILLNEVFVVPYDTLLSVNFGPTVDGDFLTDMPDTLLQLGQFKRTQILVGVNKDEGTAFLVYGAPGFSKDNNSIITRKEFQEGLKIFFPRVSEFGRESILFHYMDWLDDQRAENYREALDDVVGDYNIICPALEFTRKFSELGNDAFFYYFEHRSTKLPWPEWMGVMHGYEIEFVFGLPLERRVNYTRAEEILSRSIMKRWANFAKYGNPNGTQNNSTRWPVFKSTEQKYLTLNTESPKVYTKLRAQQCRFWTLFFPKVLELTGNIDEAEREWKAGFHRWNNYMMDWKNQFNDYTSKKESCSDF
T3 sequence (P56817 46-501): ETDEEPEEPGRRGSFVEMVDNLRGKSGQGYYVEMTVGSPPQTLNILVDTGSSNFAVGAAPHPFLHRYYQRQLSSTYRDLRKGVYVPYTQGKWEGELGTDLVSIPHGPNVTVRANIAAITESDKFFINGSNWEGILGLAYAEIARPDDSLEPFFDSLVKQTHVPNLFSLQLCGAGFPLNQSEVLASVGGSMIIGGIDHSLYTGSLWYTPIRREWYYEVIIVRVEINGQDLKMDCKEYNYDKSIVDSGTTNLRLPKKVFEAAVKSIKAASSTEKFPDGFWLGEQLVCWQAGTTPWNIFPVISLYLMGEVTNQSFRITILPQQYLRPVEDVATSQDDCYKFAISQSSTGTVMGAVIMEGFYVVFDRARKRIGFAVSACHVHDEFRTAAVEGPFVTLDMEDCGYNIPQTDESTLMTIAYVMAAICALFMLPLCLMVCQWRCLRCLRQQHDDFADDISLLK
T1 sequence (O42275 24-633): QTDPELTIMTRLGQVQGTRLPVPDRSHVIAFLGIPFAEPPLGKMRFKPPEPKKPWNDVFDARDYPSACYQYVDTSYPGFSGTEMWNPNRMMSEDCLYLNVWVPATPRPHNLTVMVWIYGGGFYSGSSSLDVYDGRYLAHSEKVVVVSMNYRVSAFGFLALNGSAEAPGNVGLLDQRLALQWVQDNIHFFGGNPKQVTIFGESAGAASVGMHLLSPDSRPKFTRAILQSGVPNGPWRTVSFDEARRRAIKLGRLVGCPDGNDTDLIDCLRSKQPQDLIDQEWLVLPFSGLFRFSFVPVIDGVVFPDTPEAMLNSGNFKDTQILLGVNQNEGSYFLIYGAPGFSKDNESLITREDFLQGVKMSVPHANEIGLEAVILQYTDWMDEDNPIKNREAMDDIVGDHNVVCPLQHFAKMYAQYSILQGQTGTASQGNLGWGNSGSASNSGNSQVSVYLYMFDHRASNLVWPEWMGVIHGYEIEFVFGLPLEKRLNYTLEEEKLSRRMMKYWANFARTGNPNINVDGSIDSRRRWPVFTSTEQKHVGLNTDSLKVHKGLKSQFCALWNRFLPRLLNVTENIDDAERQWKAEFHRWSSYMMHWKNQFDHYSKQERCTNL

As a reminder, the IC50 is the concentration needed to halve the response being measured. In turn, `COc1ccc2cc3[n+](cc2c1OC)CCc1cc2c(cc1-3)OCO2` [Berberine, berberine, reference compound] gave a 50% inhibitory concentration (IC50) in assay [1] of 0.68 ± 0.01 µM.
As for `COc1cc(O)c2c(O)c3c(=O)cc(C)oc3cc2c1` [Compound 1, rubrofusarin], the IC50 was 124 ± 1.39 µM in assay [1]; above 200 µM in assay [2]; 90 ± 2.38 µM at human recombinant BACE1 [3] (BACE1 IC50, mean ± S.E.M of triplicate experiments).
For the compound `COc1cc(OC2OC(CO)C(O)C(O)C2O)c2c(O)c3c(=O)cc(C)oc3cc2c1` [Compound 2, rubrofusarin 6-O-β-D-glucopyranoside], the IC50 in assay [1] (setting [8]) was 148 ± 2.09 µM; in assay [2] (setting [9]), above 200 µM; at human recombinant BACE1 [3] (setting [10]), 148 µM and 191 µM.
The term Ki denotes a dissociation constant, usually derived from enzyme kinetics or from competition with a known ligand. Regarding `COc1cc(O[C@@H]2O[C@H](CO[C@@H]3O[C@H](CO)[C@@H](O)[C@H](O)[C@H]3O)[C@@H](O)[C@H](O)[C@H]2O)c2c(O)c3c(=O)cc(C)oc3cc2c1` [Compound 3, rubrofusarin 6-O-β-D-gentiobioside], in assay [1], the “AChE inhibition relative to 5, 6 and 4” value was “five times”. In addition, in assay [1] (fold more effective than 1 (no sugar moiety)), the “AChE inhibition relative to 1” value is given as “eight times”. Besides, the “AChE inhibition relative to 2” value in assay [1] (fold more effective than 2 (one sugar moiety)) was “nine times”. In addition, the values for the IC50 (in assay [1] (setting [8]); in assay [2] (setting [9]); on human recombinant BACE1 [3] (setting [10])) were 15.9 ± 0.32 µM, 141.2 ± 1.23 µM and 85.7 ± 3.98 µM, respectively. For the same compound, the Ki in assay [4] (Dixon plot, read-out: Ki Value (AChE inhibition constant)) worked out at 12.8 µM. Further, the “Inhibition Type (AChE)” value in assay [4] (Lineweaver-Burk plot) is listed as “mixed type inhibition; also recorded: Mixed type ^c”. Besides, in assay [5], the “Radical scavenging activity relative to 4” value is on record as “twice”.
Regarding `Cc1cc(=O)c2c(O)c3c(OC4OC(CO)C(O)C(O)C4O)cc(O)cc3cc2o1` [Compound 4, nor-rubrofusarin 6-O-β-D-glucoside], the IC50 in assay [1] (setting [8]) was 86 ± 2.01 µM; in assay [2] (setting [9]) it was above 200 µM; at human recombinant BACE1 [3] (setting [10]) it was 86 µM and 14.4 µM. Besides, the inhibitory constant (Ki) on human recombinant BACE1 [6] (Dixon plot, read-out: Ki Value (BACE1 inhibition constant)) turned out to be 10 µM. Besides, the “Inhibition Type (BACE1)” value at human recombinant BACE1 [6] (Lineweaver-Burk plot) was “mixed type of inhibition; also recorded: Mixed type ^e”. In addition, the “BACE1 inhibitory activity (in words)” value at human recombinant BACE1 [7] is listed as “most potent BACE1 inhibitory activity”.
Regarding `COc1cc(O[C@@H]2O[C@H](CO[C@@H]3O[C@H](CO)[C@@H](O)[C@H](O)[C@H]3O)[C@@H](O)[C@H](O)[C@H]2O)c2c(c1)cc(O)c1c(=O)cc(C)oc12` [Compound 5, isorubrofusarin 10-O-β-D-gentiobioside], the IC50 in assay [1] (setting [8]) is 83.5 ± 1.56 µM; in assay [2] (setting [9]), above 200 µM; on human recombinant BACE1 [3] (setting [10]) it was above 200 µM. For the same compound, the “BACE1 inhibitory activity (in words)” value on human recombinant BACE1 [3] is given as “no significant inhibitory activity”.
Regarding `COc1cc(O[C@@H]2O[C@H](CO[C@@H]3O[C@H](CO)[C@@H](O)[C@H](O[C@@H]4O[C@H](CO)[C@@H](O)[C@H](O)[C@H]4O)[C@H]3O)[C@@H](O)[C@H](O)[C@H]2O)c2c(O)c3c(=O)cc(C)oc3cc2c1` [Compound 6, rubrofusarin 6-O-β-D-triglucoside], the IC50 in assay [1] (setting [8]) is 82.3 ± 1.63 µM; in assay [2] (setting [9]), above 200 µM; on human recombinant BACE1 [3] (setting [10]), above 200 µM. In addition, at human recombinant BACE1 [3], the “BACE1 inhibitory activity (in words)” value was “no significant inhibitory activity”.
As to `COc1cc(OC)c2c(=O)c(OC)c(-c3ccc(OC)c(OC)c3)oc2c1` [PMF, 3,5,7,3′,4′-pentamethoxyflavone, reference compound], at human recombinant BACE1 [7] (read-out: BACE1 IC50, literature value for PMF), the IC50 was 59.8 µM. The BACE1 inhibitor type result on human recombinant BACE1 [7] (reported for PMF) is reported as “noncompetitive inhibitor”.
As for toralactone gentiobioside, the “BACE1 inhibitory activity (in words)” value at human recombinant BACE1 [7] was “moderate activity”.
